Results taken from patent publication US20110117169A1, “METHODS AND COMPOSITIONS FOR CAPTURE OF CELLS” (AFFINERGY, INC., priority 2009, published 2011).
Ends that are not written are not given here. spacer = not defined here

What was measured:
ECFCs = assay: Capture of ECFCs in flow on coated coverslips (parallel plate flow chamber); type: cell-based, human; conditions: 2×10^6 ECFC circulated 2 h at 37° C.
Procedure: The ability of the collagen modified with endothelial cell binding peptide SEQ ID NO: 4 to capture ECFCs in flow was analyzed as follows. Glass coverslips were coated with unmodified collagen or cell binding peptide modified-collagen and mounted in a polycarbonate parallel plate flow chamber. PBS/10% FBS was circulated through a closed 150 ml system to block the coverslips. Approximately 2×10^6 ECFC were injected into the system and were circulated for 2 h at 37° C. Coverslips were washed in PBS to remove loosely adhering cells, the remaining cells on the coverslips were lysed in CELLTITERGLO (INVITROGEN, CA), and the cells enumerated by luminescence against a standard curve.

hMSCs [1] = assay: hMSC attachment to PEEK discs in collagen solution ([…]-GLO); type: cell-based, human; conditions: 2 h at 37° C., highest concentration of collagen
Procedure: To test whether collagen having a covalently attached cell binding peptide could increase cell adhesion to PEEK discs, PEEK discs were coated with collagen and hMSC attachment was measured. Industrial-grade PEEK discs were obtained from […] POLYMERS, Inc Houston, Tex. The discs were machined with a steel punch for a 0.5 cm diameter (thickness of 0.125). Discs (n=2 per group) were coated by two methods. In the first method, the discs were incubated overnight with varying concentrations of cell binding peptide SEQ ID NO: 4-modified collagen (88.5 μmol peptide/g of collagen). The discs were washed to remove unattached peptide and collagen, and the attached biotinylated peptide was detected with Neutravidin-HRP in an ELISA assay. […] In the second method, uncoated PEEK discs were placed in a solution of unmodified or peptide-modified collagen and hMSCs. After 2 h at 37° C., discs were moved to a new plate and washed with PBS to remove unbound cells. The number of attached cells was counted by […]-GLO. […] On the other hand, peptide-conjugated collagen increased cell attachment relative to both uncoated and collagen-coated PEEK. At the highest concentration of peptide-modified collagen, 26% of the cells were attached, whereas only 9% of cells attached to the uncoated discs and 11% to the discs coated with unmodified collagen.

HUVECs [2] = assay: Retention of HUVECs under shear stress on coated coverslips; type: cell-based, human
Procedure: The ability of the collagen modified with endothelial cell binding peptide SEQ ID NO: 4 to retain HUVECs under shear stress was analyzed as follows. Glass cover-slips were coated with peptide conjugated collagen or unmodified collagen and seeded with HUVECs. Coverslips were secured in a polycarbonate slide with six 1 cm diameter wells enabling simultaneous testing of materials. A closed loop peristaltic pump was used to expose the samples to flow conditions for 30 minutes at laminar flow rates up to 12 dynes/cm^2 in PBS containing 2% FBS. The number of cells retained on the cover slip was determined using […]-GLO (INVITORGEN) and a luminometer.

human dermal fibroblasts = assay: Fibroblast binding to peptide-modified collagen coated plates; type: cell-based; conditions: for fibroblast binding compared to unmodified collagen: higher concentrations / FIG. 28 summary
Procedure: The experiment was performed according to the following procedure. Cell-binding peptide (SEQ ID NO: 4) was covalently attached to soluble collagen as described herein at Example 7. 96-well plates were coated with various amounts of unmodified or the peptide-modified collagen (177 μmol peptide/g collagen) over night at 4° C. Unbound collagen was removed and the plates were blocked for 1 h. After washing, 5,000 human dermal fibroblasts were added per well in serum-free medium for 30 min at 37° C. The plates were washed, and bound cells were detected with […]-GLO (PROMEGA) using a luminometer. At 0.0025 μg collagen, fibroblast binding was increased 11-fold for the peptide-modified collagen compared to unmodified collagen (see FIG. 28).

hMSCs [3] = assay: Adherence of hMSCs to polypropylene in presence of peptide-modified collagen; type: cell-based, human; conditions: after binding in presence of the collagen
hMSCs [4] = assay: Binding of peptide-modified collagen to hMSCs, FACS with Neutravidin-PE; design: species or system human; conditions: 20,000 hMSCs, 1 hr on ice, serial dilution from 25 μM
Procedure: In a separate experiment, cell binding peptide SEQ ID NO: 4 was covalently attached to collagen as described herein and tested for its ability to bind hMSCs using an experimental setup similar to that described above. Briefly, collagen with covalently attached SEQ ID NO: 4 peptide was serial diluted (starting from 25 μM) and mixed with 20,000 hMSCs in 2% FBS/PBS. After 1 hr incubation on ice, cells were washed twice with 2% FBS/PBS and cells bound to the collagen with covalently attached SEQ ID NO: 4 peptide were detected with Neutravidin-PE. Cells were washed, transferred into 96-well plates for FACS analysis.

HUVECs [5] = assay: HUVEC capture and retention on plates coated with peptide-modified collagen ([…]-GLO); type: cell-based, human
Procedure: After washing, 10,000 HUVECs were added per well in serum free medium for 30 min at 37° C. The plates were washed 3 times with PBS containing 2% FBS, and captured cells were detected with […]-GLO (INVITROGEN) using a luminometer and a standard curve. […] For FIG. 21B, the collagen was extracted in gel loading buffer, separated by PAGE, and total protein was stained with SIMPLYBLUE (INVITROGEN). […] Plates with captured HUVECs were prepared as described in FIG. 20A. […]

## peptide-modified collagen: SEQ ID NO: 4 with spacer and lysine covalently attached to soluble bovine type I collagen via BS^3 crosslinking reagent (SSFWDVCQGDGTCYGGGSR-{spacer-Lys}; cysteine pairing not given here; reading uncertain; also: covalently attached to soluble bovine type I collagen via BS3 crosslinker, spacer not given here)
ECFCs
  ECFCs captured in flow compared to unmodified collagen: about 20 fold
hMSCs [1]
  cells attached to PEEK discs: 26%
HUVECs [2]; 30 minutes, laminar flow up to 12 dynes/cm^2
  effect of shear stress on cell capture: did not significantly affect cell capture
HUVECs [2]; coated glass cover-slips, PBS containing 2% FBS
  HUVECs captured compared to unmodified collagen: about 3 fold
Human dermal fibroblasts; 0.0025 μg collagen, 5,000 fibroblasts per well, 30 min at 37° C.
  increase in fibroblast binding compared to unmodified collagen: 11 fold
Human dermal fibroblasts; listed as SEQ ID NO: 4 peptide-modified collagen
  fibroblast binding compared to unmodified collagen: Increased cell binding
Human dermal fibroblasts; listed as cell binding peptide (SEQ ID NO: 4)-modified collagen
  fibroblast binding compared to unmodified collagen: enhanced binding
hMSCs [3]
  hMSCs retained on the walls of polypropylene plates: ~80%
hMSCs [4]
  increase in fluorescence signal compared to control: ~100 fold
HUVECs [5]; 1 hour with agitation in PBS containing 2% FBS
  HUVECs retained compared to unmodified collagen after agitation: 7 fold
HUVECs [5]; 10,000 HUVECs per well, serum free medium, 30 min at 37° C.
  increase in HUVEC retention over unmodified collagen: 3 fold
